Experimental data as given in patent US12679827B2, “Pyrimidine compounds and their pharmaceutical uses” (National Health Research Institutes, priority 2020, dated 2026).

Key:
[1] = test system: NCI-H446 xenografted tumor; experiment: Inhibition of xenografted tumor growth, NCI-H446-xenografted tumorigenicity mouse model; assay type: in vivo, mice; settings: 100 mg/kg orally; for tumor regression: NCI-H446 xenograft
Method: The efficacies of two compounds of Formula (I), i.e., compound 71 and compound 122, in inhibiting tumor growth were determined using a NCI-H446-xenografted tumorigenicity mouse model as below.
Male athymic nu/nu nude mice (BioLASCO, Taiwan) at age 6 wk were housed in sterile cages maintained under 12-h light/dark cycles with controlled temperature and humidity. The mice were inoculated s.c. with 1×10^6 NCI-H446 cells (ATCC® HTB-171) resuspended in saline mixed with 50% Metrigel Matrix (Corning, USA). The sizes of the xenografted tumors were measured by a digital caliper (GMC-190; Goldsun Electronics Co.) and calculated using the algorithm: tumor volume (mm^3)=length×(width)^2/2. Body weight and tumor size were measured at least twice a week.

[2] = test system: NCI-H446; experiment: Small-cell-lung cancer cell proliferation inhibition assay (PrestoBlue), NCI-H446; assay type: cell-based; settings: Homo sapiens, cMYC amplified SCLC cells, 72 hours
Method: (§1) Small cell lung cancer cells NCI-H82 (ATCC HTB-175, cMYC amplified), NCI-H446 (ATCC® HTB-171, cMYC amplified), and NCI-H69 (ATCC® HTB-119, MYCN amplified) were seeded at the density of 5000-10000 cells per well in 96-well plates. After 24 hours, the cancer cells were treated with each compound at various concentrations (0-10 μM) and then incubated for another 72 hours. IC50 values were computed based on duplicated 8-point titration.

[3] = test system: NCI-H69; experiment: Small-cell-lung cancer cell proliferation inhibition assay (PrestoBlue), NCI-H69; assay type: cell-based; settings: Homo sapiens, MYCN amplified SCLC cells, 72 hours
Method: as §1

[4] = test system: cleaved PARP-1 (cPARP-1); experiment: In vivo cell apoptosis induction (cleaved PARP-1), NCI-H446 xenograft mouse model, Western blot; design: species or system mice; settings: one oral dosage of 100 mg/kg; 24 hours after administration; FIG. 3
Method: (§2) The efficacy of a compound of Formula (I), i.e., compound 71, in reducing the cMYC protein level and in inducing cell apoptosis was assessed using an NCI-H446 xenograft tumorigenicity mouse model as follows.
(§3) Male athymic nu/nu nude mice (BioLASCO. Taiwan) at 6-week age were housed in sterile cages maintained under 12-h light/dark cycles with controlled temperature and humidity. Mice were inoculated s.c. with 1×10^6 NCI-H446 cells resuspended in saline mixed with 50% Metrigel Matrix (Corning, USA). The sizes of the xenografted tumors were measured by a digital caliper (GMC-190; Goldsun Electronics Co.) and calculated using the algorithm: tumor volume (mm^3)=length×(width)^2/2. Body weight and tumor size were measured at least twice a week. When the xenografted NCI-H446 tumor reached a size ≥500 mm^3, the xenografted tumor-bearing nude mice were oral (PO) administered with compound 71 at one dosage of 100 mg/kg. Tumors were harvested at 2 hours, 4 hours, 8 hours, and 24 hours after the administration. Tissue lysates of the tumors were subjected for Western blot analysis. The primary antibodies used were cMYC (Cell Signaling, Cat No. 5605S), PARP-1 (Abcam, ab32378), and β-ACTIN (Sigma-Aldrich, A1978).

[5] = test system: cMYC; experiment: In vivo cMYC protein level reduction, NCI-H446 xenograft mouse model, Western blot; design: species or system mice; settings: one oral dosage of 100 mg/kg; tumors harvested 2-24 hours; FIG. 3
Method: as §2, §3

[6] = test system: NCI-H82; experiment: Small-cell-lung cancer cell proliferation inhibition assay (PrestoBlue), NCI-H82; assay type: cell-based; settings: Homo sapiens, cMYC amplified SCLC cells, 72 hours
Method: as §1

[7] = background statement, WO 2014/190207A1; cited from earlier work
[8] = target: T1, human Aurora A (amino acids 123-401) (Homo sapiens, UniProt O14965); experiment: Kinase-Glo Luminescent Kinase assay, in vitro inhibition of Aurora A kinase activity; assay type: biochemical; settings: recombinant GST-tagged Aurora A, 5.0 μM ATP, 37° C., 120 minutes
T1 construct: human Aurora A (amino acids 123-401) was expressed in Sf9 insect cells; GST; made in house; host or cells: Sf9 insect cells
T1 sequence (O14965 123-401): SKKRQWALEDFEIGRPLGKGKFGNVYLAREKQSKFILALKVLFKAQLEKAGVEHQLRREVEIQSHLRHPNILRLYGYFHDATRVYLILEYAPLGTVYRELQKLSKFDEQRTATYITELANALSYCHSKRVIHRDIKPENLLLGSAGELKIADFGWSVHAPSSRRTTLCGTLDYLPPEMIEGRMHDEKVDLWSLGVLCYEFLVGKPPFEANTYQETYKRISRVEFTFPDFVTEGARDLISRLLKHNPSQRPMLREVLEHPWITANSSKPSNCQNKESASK
Method: Recombinant glutathione S-transferase (GST)-tagged N-terminal truncated human Aurora A (amino acids 123-401) was expressed in Sf9 insect cells and then purified by glutathione affinity chromatography to afford recombinant Aurora A. Recombinant Aurora A (150 ng) was reacted with each test compound (100 nM) in 50 μL of 50 mM Tris-HCl pH 7.4, 10 mM NaCl, 10 mM MgCl2, 0.01% bovine serum albumin, 5.0 μM ATP, 1 mM dithiothreitol, 15 μM tetra(-LRRASLG) peptide at 37° C. for 120 minutes. Then, to the reaction was added 50 μL of Kinase-Glo Plus Reagent. The resulting mixture was incubated at 25° C. for 20 minutes. A 70 μL aliquot of the mixture was transferred to a black microliter plate. Luminescence was measured using a Wallac Vector 1420 multilabel counter (PerkinElmer, USA).

Row | Compound | IC50 [2] [nM] | IC50 [3] [nM] | IC50 [6] [nM] | tumor regression [1] | IC50 [8] [nM] | also measured
1 | COc1cc(Nc2ncc3c(n2)-c2ccc(Cl)cc2C(c2c(F)cccc2OC)=NC3)ccc1C(=O)O [MCLN8237, reference compound] | – | – | – | – | – | tumor size 6 weeks after the treatment stopped ([1]; FIG. 2A): > 700 mm^3
2 | CCC(=O)n1nc(C)cc1Nc1cc(N2CCN(CC)CC2)nc(N[C@H]2CCN(C(=O)c3ccc(Cl)cc3F)C2)n1 [Compound 71] | < 1000 | < 1000 | < 1000 | more than 80% | – | xenografted tumors with increased amounts of cleaved PARP-1 (cell apoptosis) [4]: more than 80%; xenografted tumors with reduced cMYC protein level [5]: more than 50%; tumor size after treatment ([1]; 5-on-2-off, from about 250 mm^3, in 10 days, FIG. 2A): smaller than 50 mm^3; tumor size after treatment ([1]; 5-on-2-off, from larger than 750 mm^3, in 14 days, FIG. 2C): smaller than 50 mm^3
3 | O=C(Nc1ccc(Nc2nccc(Nc3cc(C4CCCC4)[nH]n3)n2)cc1)Nc1cccc(C(F)(F)F)c1 [CD532] | – | – | – | – | – | in vivo efficacy [7]: weak
4 | Cc1cc(Nc2cc(N3C[C@H](C)NC[C@H]3C)nc(NC3CCN(C(=O)c4cccc(Cl)c4F)CC3)n2)n[nH]1 [Compound 107] | < 1000 | < 1000 | < 1000 | – | < 100 | –
5 | CCC(=O)n1nc(C)cc1Nc1cc(N2CCN(CC)CC2)nc(NC2CCN(C(=O)c3cccc(Cl)c3F)CC2)n1 [Compound 122] | < 1000 | < 1000 | < 1000 | more than 80% | < 100 | tumor size after treatment ([1]; from about 250 mm^3, FIG. 2B): smaller than 50 mm^3
6 | Cc1cc(Nc2cc(N3CC[C@H](N(C)C)C3)nc(NC3CCN(C(=O)c4cccc(Cl)c4F)CC3)n2)n[nH]1 [Compound 96] | < 1000 | < 1000 | < 1000 | – | < 100 | –
